For the assay, the target named is TNFα trimer (Homo sapiens, UniProt P01375). The assay is described as follows: TNFα FP Competitive Binding Assay. The following applies: FP binding assay; 20 nM TNFα trimer, 1 nM OregonGreen488 probe; read-out: TNF IC50. Summed up:
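Compounds in 12-point 1:3 series, final top 100 μM (2.0% DMSO) or 338 μM (3.4% DMSO), displace 1 nM fluorescent probe from 20 nM TNFα trimer. After 18-24 h incubation plus 1 h rt equilibration, background-subtracted polarization measured and curves fitted with variable slope.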

The term IC50 denotes the point on the concentration scale where inhibition reaches its midpoint.

TNFα trimer, sequence (P01375 77-233 limits assumed): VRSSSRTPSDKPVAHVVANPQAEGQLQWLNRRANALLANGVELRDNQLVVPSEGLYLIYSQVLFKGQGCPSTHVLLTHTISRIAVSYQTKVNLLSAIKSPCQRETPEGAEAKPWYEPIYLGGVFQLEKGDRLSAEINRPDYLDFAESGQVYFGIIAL

With `C[C@@H]1CN(c2ncc(-c3ccc4c(=O)n(C)n(Cc5ccccc5OC(F)F)c4c3)cn2)CCN1C(=O)[C@H](O)CO` [Example 39, 1-(2-(Difluoromethoxy)benzyl)-6-(2-((R)-4-((R)-2,3-dihydroxypropanoyl)-3-methylpiperazin-1-yl)pyrimidin-5-yl)-2-methyl-1H-indazol-3(2H)-one], the IC50 is less than 1000 nM.

For `Cn1c(=O)c2cc(F)c(-c3cnc(C(C)(C)O)nc3)cc2n1Cc1ccccc1OC(F)F` [Example 40, 1-(2-(Difluoromethoxy)benzyl)-5-fluoro-6-(2-(2-hydroxypropan-2-yl)pyrimidin-5-yl)-2-methyl-1H-indazol-3(2H)-one], the IC50 lay within 1000 to 10000 nM.

In the case of `Cc1ccc(OC(F)F)c(Cn2c3cc(-c4cnc(N5CCN(S(C)(=O)=O)[C@@H](C)C5)nc4)ccc3c(=O)n2C)c1` [Example 41, (S)-1-(2-(Difluoromethoxy)-5-methylbenzyl)-2-methyl-6-(2-(3-methyl-4-(methylsulfonyl)piperazin-1-yl)pyrimidin-5-yl)-1H-indazol-3(2H)-one], the IC50 was less than 1000 nM.

Regarding `Cn1c(=O)c2ccc(-c3cnc(C(C)(C)O)nc3)cc2n1Cc1cc(NCc2ccccn2)ccc1Cl` [Example 42, 1-(2-Chloro-5-((pyridin-2-ylmethyl)amino)benzyl)-6-(2-(2-hydroxypropan-2-yl)pyrimidin-5-yl)-2-methyl-1H-indazol-3(2H)-one], the IC50 lay in the range of 1000 to 10000 nM.

As to `Cn1c(=O)c2ccc(-c3cnc(C(C)(C)O)nc3)cc2n1Cc1cc(NCc2cc[nH]n2)ccc1Cl` [Example 43], the IC50 lay within 1000 to 10000 nM.

Regarding `Cn1c(=O)c2ccc(-c3cnc(C(C)(C)O)nc3)cc2n1Cc1cc(NC2CCCc3c[nH]nc32)ccc1Cl` (stereo not drawn) [Example 44, 1-(2-Chloro-5-((4,5,6,7-tetrahydro-1H-indazol-7-yl)amino)benzyl)-6-(2-(2-hydroxypropan-2-yl)pyrimidin-5-yl)-2-methyl-1H-indazol-3(2H)-one], the concentration for half-maximal inhibition (IC50) is less than 1000 nM.

As for `Cc1ccc(OC(F)F)c(Cn2c3c(F)c(-c4cnc(C(C)(C)O)nc4C)ccc3c(=O)n2C)c1` [Example 45, 1-(2-(Difluoromethoxy)-5-methylbenzyl)-7-fluoro-6-(2-(2-hydroxypropan-2-yl)-4-methylpyrimidin-5-yl)-2-methyl-1H-indazol-3(2H)-one], the IC50 was less than 1000 nM.

With `C[C@@H]1CN(c2ncc(-c3c(F)cc4c(=O)n(C)n(Cc5ccccc5OC(F)F)c4c3F)cn2)CCN1C(=O)CO` [Example 46], the IC50 is less than 1000 nM.

As for `COc1cc2c(=O)n(C)n(Cc3ccccc3OC(F)F)c2cc1-c1cnc(N2CCN(C(=O)CO)[C@H](C)C2)nc1` [Example 47, (R)-1-(2-(Difluoromethoxy)benzyl)-6-(2-(4-(2-hydroxyacetyl)-3-methylpiperazin-1-yl)pyrimidin-5-yl)-5-methoxy-2-methyl-1H-indazol-3(2H)-one], the IC50 lay within 1000 to 10000 nM.

For the molecule `CC(=O)N1CCN(c2ncc(-c3ccc4c(=O)n(C)n(Cc5c(CO)cccc5OC(F)F)c4c3)cn2)C[C@H]1C` [Example 48, (R)-6-(2-(4-Acetyl-3-methylpiperazin-1-yl)pyrimidin-5-yl)-1-(2-(difluoromethoxy)-6-(hydroxymethyl)benzyl)-2-methyl-1H-indazol-3(2H)-one], the IC50 is less than 1000 nM.

For the molecule `CC(=O)N1CCN(c2ncc(-c3ccc4c(=O)n(C)n(Cc5c(CC#N)cccc5OC(F)F)c4c3)cn2)C[C@H]1C` [Example 49, (R)-2-(2-((6-(2-(4-Acetyl-3-methylpiperazin-1-yl)pyrimidin-5-yl)-2-methyl-3-oxo-2,3-dihydro-1H-indazol-1-yl)methyl)-3-(difluoromethoxy)phenyl)acetonitrile], the IC50 was less than 1000 nM.

As for `C[C@@H]1CN(c2ncc(-c3ccc4c(=O)n(C)n(Cc5ccccc5OC(F)F)c4c3)cn2)CCN1C(=O)[C@H](O)CC(=O)O` [Example 50, (R)-4-((R)-4-(5-(1-(2-(Difluoromethoxy)benzyl)-2-methyl-3-oxo-2,3-dihydro-1H-indazol-6-yl)pyrimidin-2-yl)-2-methylpiperazin-1-yl)-3-hydroxy-4-oxobutanoic acid], the IC50 is less than 1000 nM.

As to `C[C@@H]1CN(c2ncc(-c3ccc4c(=O)n(C)n(Cc5ccccc5OC(F)F)c4c3)cn2)CCN1C(=O)[C@@H](O)CC(=O)O` [Example 51, (S)-4-((R)-4-(5-(1-(2-(Difluoromethoxy)benzyl)-2-methyl-3-oxo-2,3-dihydro-1H-indazol-6-yl)pyrimidin-2-yl)-2-methylpiperazin-1-yl)-3-hydroxy-4-oxobutanoic acid], the IC50 is less than 1000 nM.

For `CC(=O)N1CCN(c2ncc(-c3ccc4c(=O)n(C)n(Cc5cccc6c5SCC(=O)NC6)c4c3)cn2)C[C@H]1C` [Example 52, (R)-9-((6-(2-(4-Acetyl-3-methylpiperazin-1-yl)pyrimidin-5-yl)-2-methyl-3-oxo-2,3-dihydro-1H-indazol-1-yl)methyl)-4,5-dihydrobenzo[f][1,4]thiazepin-3(2H)-one], the IC50 lay within 1000 to 10000 nM.

For `Cn1c(=O)c2ccc(-c3cnc(C(C)(C)O)nc3)cc2n1Cc1cc(NCc2cccnc2)ccc1Cl` [Example 53, 1-(2-Chloro-5-((pyridin-3-ylmethyl)amino)benzyl)-6-(2-(2-hydroxypropan-2-yl)pyrimidin-5-yl)-2-methyl-1H-indazol-3(2H)-one], the IC50 was in the range of 1000 to 10000 nM.

Regarding `Cc1ccc(CO)cc1Cn1c2cc(-c3cnc(N4CCOCC4)nc3)ccc2c(=O)n1C` [Example 56, 1-(5-(Hydroxymethyl)-2-methylbenzyl)-2-methyl-6-(2-morpholinopyrimidin-5-yl)-1H-indazol-3(2H)-one], the IC50 was in the range of 1000 to 10000 nM.

`[2H]C([2H])([2H])n1c(=O)c2ccc(-c3cnc(N4CCN5C(=O)OC[C@H]5C4)nc3)cc2n1Cc1cc(C)ccc1OC(F)F` [Example 57, (R)-7-(5-(1-(2-(Difluoromethoxy)-5-methylbenzyl)-2-(methyl-d3)-3-oxo-2,3-dihydro-1H-indazol-6-yl)pyrimidin-2-yl)hexahydro-3H-oxazolo[3,4-a]pyrazin-3-one]: the IC50 is less than 1000 nM.

`C[C@@H]1CN(c2ncc(-c3cc4c(cc3F)c(=O)n(C)n4Cc3ccccc3OC(F)F)cn2)CCN1C(=O)CO` [Example 59, (R)-1-(2-(Difluoromethoxy)benzyl)-5-fluoro-6-(2-(4-(2-hydroxyacetyl)-3-methylpiperazin-1-yl)pyrimidin-5-yl)-2-methyl-1H-indazol-3(2H)-one]: the IC50 is less than 1000 nM.

With `C[C@@H]1CN(c2ccc(-c3cc4c(cc3F)c(=O)n(C)n4Cc3ccccc3OC(F)F)cn2)CCN1C(=O)CO` [Example 60, (R)-1-(2-(Difluoromethoxy)benzyl)-5-fluoro-6-(6-(4-(2-hydroxyacetyl)-3-methylpiperazin-1-yl)pyridin-3-yl)-2-methyl-1H-indazol-3(2H)-one], the 50% inhibitory concentration (IC50) was less than 1000 nM.

As for `CC(=O)N1CCN(c2ncc(-c3ccc4c(=O)n(C)n(Cc5nc(CC#N)ccc5C(F)(F)F)c4c3)cn2)C[C@H]1C` [Example 61, (R)-2-(6-((6-(2-(4-Acetyl-3-methylpiperazin-1-yl)pyrimidin-5-yl)-2-methyl-3-oxo-2,3-dihydro-1H-indazol-1-yl)methyl)-5-(trifluoromethyl)pyridin-2-yl)acetonitrile], the IC50 was less than 1000 nM.

Take `[2H]C([2H])([2H])n1c(=O)c2ccc(-c3cnc(N4CCN(C(=O)CO)[C@H](C)C4)nc3)cc2n1Cc1cc(C)ccc1OC(F)F` [Example 62, (R)-1-(2-(Difluoromethoxy)-5-methylbenzyl)-6-(2-(4-(2-hydroxyacetyl)-3-methylpiperazin-1-yl)pyrimidin-5-yl)-2-(methyl-d3)-1H-indazol-3(2H)-one]: the IC50 is less than 1000 nM.

In the case of `[2H]C([2H])([2H])n1c(=O)c2ccc(-c3cnc(N4CCN(C(C)=O)[C@H](C)C4)nc3)cc2n1Cc1cc(C)ccc1OC(F)F` [Example 63, (R)-6-(2-(4-Acetyl-3-methylpiperazin-1-yl)pyrimidin-5-yl)-1-(2-(difluoromethoxy)-5-methylbenzyl)-2-methyl-d3-1H-indazol-3(2H)-one], the IC50 is less than 1000 nM.

Consider `CC(=O)N1CCN(c2ncc(-c3ccc4c(=O)n(C)n(Cc5cn(CCO)cc5C(F)(F)F)c4c3)cn2)C[C@H]1C` [Example 64, (R)-6-(2-(4-Acetyl-3-methylpiperazin-1-yl)pyrimidin-5-yl)-1-((1-(2-hydroxyethyl)-4-(trifluoromethyl)-1H-pyrrol-3-yl)methyl)-2-methyl-1H-indazol-3(2H)-one], for which the IC50 was less than 1000 nM.

Regarding `CC(=O)N1CCN(c2ncc(-c3ccc4c(=O)n(C)n(Cc5c(CO)cccc5OC(F)F)c4c3)cn2)[C@H](C)C1` [Example 65, (R)-6-(2-(4-acetyl-2-methylpiperazin-1-yl)pyrimidin-5-yl)-1-(2-(difluoromethoxy)-6-(hydroxymethyl)benzyl)-2-methyl-1H-indazol-3(2H)-one], the IC50 was less than 1000 nM.

Regarding `Cn1c(=O)c2ccc(-c3cnc(N4CCN5C(=O)NC[C@@H]5C4)nc3)cc2n1Cc1c(CO)cccc1OC(F)F` [Example 66, (R)-7-(5-(1-(2-(difluoromethoxy)-6-(hydroxymethyl)benzyl)-2-methyl-3-oxo-2,3-dihydro-1H-indazol-6-yl)pyrimidin-2-yl)hexahydroimidazo[1,5-a]pyrazin-3(2H)-one], the IC50 was less than 1000 nM.

Regarding `CN(C)C(=O)OCc1ccc(OC(F)F)c(Cn2c3cc(-c4cnc(N5CCN6C(=O)NC[C@@H]6C5)nc4)ccc3c(=O)n2C)c1` [Example 67, (R)-4-(Difluoromethoxy)-3-((2-methyl-3-oxo-6-(2-(3-oxohexahydroimidazo[1,5-a]pyrazin-7(1H)-yl)pyrimidin-5-yl)-2,3-dihydro-1H-indazol-1-yl)methyl)benzyldimethylcarbamate], the IC50 was less than 1000 nM.

On to `Cn1c(=O)c2ccc(-c3cnc(N4CCN5C(=O)NC[C@@H]5C4)nc3)cc2n1Cc1cc(CC#N)ccc1OC(F)F` [Example 68, (R)-2-(4-(Difluoromethoxy)-3-((2-methyl-3-oxo-6-(2-(3-oxohexahydromidazo[1,5-a]pyrazin-7(1H)-yl)pyrimidin-5-yl)-2,3-dihydro-1H-indazol-1-yl)methyl)phenyl)acetonitrile], for which the IC50 was less than 1000 nM.

Values taken from patent US10160748B2 (AbbVie Inc., priority 2015, dated 2018).
